Assay results from patent publication US12558345B2, “CHK1/2 inhibitors for use in the treatment of neuroblastomas and/or soft tissue sarcomas” (Eli Lilly and Company, priority 2015, dated 2026).
Where a name gives a salt, the structure may show the parent alone.

Columns and labels:
[1] = system: CTG-0241 OS patient-derived xenograft; test: Xenograft Tumor Model CTG-0241; assay type: in vivo, mouse; details: comparator day 28, p-value 0.019
Procedure: (§1) The efficacy of 5-(5-(2-(3-aminopropoxy)-6-methoxyphenyl)-1H-pyrazol-3-ylamino)pyrazine-2-carbonitrile methanesulfonic acid monohydrate is measurable in vivo in mouse models of neuroblastomas and human pediatric and adult sarcomas. 5-(5-(2-(3-Aminopropoxy)-6-methoxyphenyl)-1H-pyrazol-3-ylamino)pyrazine-2-carbonitrile methanesulfonic acid monohydrate (10 mg/kg) can be administered subcutaneously to nude mice bearing either cell-derived xenografts (CDX) or patient-derived xenografts (PDX) of human rhabdomyosarcoma, desmoplastic small round cell tumor (DSRCT), osteosarcoma, and Ewing's sarcoma using a 3 day on, 4 day off b.i.d. dosing schedule. Tumor volume and body weight can be measured two times per week. Tumor-specific parameters can be evaluated by immumohistochemistry. […]
(§2) For all “ST” models (encompassing RMS and LMS), patient-derived xenografts are established from viable human tumor tissue and are serially passaged in animals a limited number of times to maintain tumor heterogeneity. […] Tumor response is determined by tumor volume measurement performed twice per week during the course of treatment.

[2] = system: ST550 LMS patient-derived xenograft; test: Xenograft Tumor Model ST550; assay type: in vivo, mouse; details: comparator day 31, p-value 0.712
Procedure: (§3) For all “ST” models (encompassing RMS and LMS), patient-derived xenografts are established from viable human tumor tissue and are serially passaged in animals a limited number of times to maintain tumor heterogeneity. In subcutaneous models, athymic nude mice (Crl:NU(NCr)-Foxn1nu) or CB-17 SCID mice (CRL-CB17/Icr-Prkdcscid/IcrIcoCrl) are injected or implanted unilaterally into the flank with tumor fragments harvested from host animals, each implanted from a specific passage lot. For all studies, measure tumor growth and body weight twice per week beginning on the seventh day after implantation. When tumor size reaches 150-300 mm^3, randomize animals and group into groups of 4-7 animals. Prepare test compound in an appropriate vehicle (e.g. vehicle can be 20% Captisol® in sterile water) and administer subcutaneously for three consecutive days followed by a four day dosing holiday and repeat for a minimum of four weeks. Tumor response is determined by tumor volume measurement performed twice per week during the course of treatment.

[3] = system: ST1547 LMS patient-derived xenograft; test: Xenograft Tumor Model ST1547; assay type: in vivo, mouse; details: comparator day 28, p-value <0.001
Procedure: as §3

[4] = system: Ewing's Sarcoma xenograft models; test: Sarcoma xenograft models by tumor subtype: Ewing's Sarcoma; assay type: in vivo, mouse; details: age of patients 8-17 years
Procedure: as §1, §2

[5] = system: ST658 LMS patient-derived xenograft; test: Xenograft Tumor Model ST658; assay type: in vivo, mouse; details: comparator day 16, p-value 0.592
Procedure: as §3

[6] = system: DSRCT xenograft models; test: Sarcoma xenograft models by tumor subtype: DSRCT; assay type: in vivo, mouse
Procedure: The efficacy of 5-(5-(2-(3-aminopropoxy)-6-methoxyphenyl)-1H-pyrazol-3-ylamino)pyrazine-2-carbonitrile methanesulfonic acid monohydrate is measurable in vivo in mouse models of neuroblastomas and human pediatric and adult sarcomas. 5-(5-(2-(3-Aminopropoxy)-6-methoxyphenyl)-1H-pyrazol-3-ylamino)pyrazine-2-carbonitrile methanesulfonic acid monohydrate (10 mg/kg) can be administered subcutaneously to nude mice bearing either cell-derived xenografts (CDX) or patient-derived xenografts (PDX) of human rhabdomyosarcoma, desmoplastic small round cell tumor (DSRCT), osteosarcoma, and Ewing's sarcoma using a 3 day on, 4 day off b.i.d. dosing schedule. Tumor volume and body weight can be measured two times per week. Tumor-specific parameters can be evaluated by immumohistochemistry.
For all “CTG” models (encompassing human RMS, DSRCT, EWS, OS and LMS patient-derived xenograft models), female NCr nude spontaneous mutant mice (5-8 weeks old, Taconic) are implanted unilaterally in the flank region with tumor fragments harvested from donor animals, each implanted from a specific passage lot.
as §3

[7] = system: CTG-0994 EWS patient-derived xenograft; test: Xenograft Tumor Model CTG-0994; assay type: in vivo, mouse; details: comparator day 25, p-value <0.001
Procedure: as §1, §2

[8] = system: HT-29 cells; test: ECtfs (Two-Fold Sensitization) Assay; assay type: cell-based
Procedure: An inhibitor of CHK1 can potentiate the anti-proliferative activity of gemcitabine (or other cytotoxics) through abrogation of the intra-S phase checkpoint, resulting in sustained and increased DNA damage. The capacity for continued tumor cell proliferation after DNA damage can be analyzed by determining the ability of cells to replicate their DNA. […] In this assay, cells are treated with gemcitabine, and then with the compound of Example 2. Following a recovery period, cells are assayed for the ability to incorporate radioactive thymidine into DNA during S phase. The ECtfs parameter is a measure of the concentration of a CHK1 inhibitor necessary to reduce by half the GI90 concentration of gemcitabine, measured in this assay in the absence of CHK1 inhibition. HT-29 cells (obtained from ATCC), are grown in RPMI 1640 plus (Gibco™) 10% (v/v) heat inactivated FBS. These cells are plated at 1.3×10^3 per well on Corning Costar 96-well tissue culture plates. After plating the cells, the tissue culture plates are held at room temperature for 45 minutes, before returning to 37° C. Plates are incubated for 24 hours prior to gemcitabine addition. Before gemcitabine addition, medium is removed from all wells and replaced with 150 μL per well of fresh RPMI medium. Gemcitabine stocks at 10 mM are prepared in PBS. Gemcitabine dilutions were prepared at 4× concentrations in RPMI medium and added to wells at 50 μL per well. The highest final concentration of gemcitabine used is 80 μM and dilutions proceed by four-fold steps. Two hours later, gemcitabine-containing medium is removed from the wells and replaced with 150 μL per well of fresh RPMI medium. […] The volume of addition is 50 μL. Compound dilutions proceed by two-fold steps, starting at 5000 nM. […] Twenty μL of this solution is added to each well, yielding 1 µCi/well of ^3H-thymidine. Cells are labeled for twenty-two hours. The medium containing ^3H-thymidine is thoroughly removed from the wells. The plates are then frozen at −20° C., for several hours. To harvest the DNA containing incorporated ^3H-thymidine, plates are thawed for several minutes, and then 120 μL per well of 0.1 N NaOH is added to each well. Each plate is then incubated at 37° C., with slow mixing on a rotator, for 10 minutes. DNA is harvested with a Filtermate 196 Harvester (PerkinElmer) and collected on 96-well Unifilter GF/C plates (PerkinElmer #6005174). The wells of the tissue culture plate on which cells had been labeled are washed with water (5×). The Unifilter plate membranes are washed with an additional 4.5 mL per well (3×1.0 mL and finally a 1.5 mL wash). The Unifi is sealed with a Backseal adhesive sheet (PerkinElmer), and the 50 μL/well of MicroScint-20 (Perkin Elmer) is added. Each plate is then sealed with a Topseal clear adhesive sheet (PerkinElmer). Plates are counted on a Topcount scintillation counter (PerkinElmer), at 1 minute per well. ^3H-thymidine counts per minute (cpm) are exported into Prism (GraphPad) for analysis and plotting. […] For plotting the data in Prism, the gemcitabine concentrations are transformed to log values, and dose-response curves are fit by non-linear regression. Neither top nor bottom fits are constrained. The ECtfs value is 0.3 nM.

| Structure (SMILES) | % T/C [1] [%] | % T/C [2] [%] | % T/C [3] [%] | Result of Treatment: Stable Disease (models) [4] | % T/C [5] [%] | Result of Treatment: Complete Response (models) ([6]; DSRCT, age of patients 20 years) | tumor response when re-challenged ([6]; PDX model of DSRCT, after regrowth) | time post-treatment at which tumor growth is observed ([6]; PDX model of DSRCT, upon cessation of therapy) [days] | tumor response in a PDX model of DSRCT ([6]; following four dosing cycles) | % Regression [7] [%] | decrease of the EC50 of gemcitabine ([8]; HT29 cells, 3 nM of the compound of Example 2) [fold] | ECtfs value ([8]; HT-29 cells, concentration necessary to reduce by half the GI90 concentration of gemcitabine, 3H-thymidine incorporation) [nM] | effect on the proliferation of HT29 cells ([8]; compound alone, 3 nM) |
| --- | --- | --- | --- | --- | --- | --- | --- | --- | --- | --- | --- | --- | --- |
| COc1cccc(OCCCN)c1-c1cc(Nc2cnc(C#N)cn2)n[nH]1 [Example 5, 5-(5-(2-(3-Aminopropoxy)-6-methoxyphenyl)-1H-pyrazol-3-ylamino)pyrazine-2-carbonitrile methanesulfonic acid monohydrate] | 48 | 94 | 5 | 1/4 Stable Disease | 137 | 1/1 Complete | tumor regression | 50 | complete regression | −79 | – | – | – |
| COc1cccc(OCCCN)c1-c1cc(Nc2cnc(C#N)cn2)n[nH]1 [Example 2, 5-(5-(2-(3-Aminopropoxy)-6-methoxyphenyl)-1H-pyrazol-3-ylamino)pyrazine-2-carbonitrile dihydrogen chloride salt] | – | – | – | – | – | – | – | – | – | – | 7 | 0.3 | little effect |
